# Assay results reported in publication PMC7769078 (International Journal of Nanomedicine, 2020).
# Legend:
# SH-SY5Y cells = assay: Cytoprotection against MPP+-induced cell death in SH-SY5Y cells; assay type: cell-based, human; conditions: for viability of MPP+-treated SH-SY5Y cells: 2 h pre-treatment, then 2 mM MPP+ 36 h
# zebrafish larvae (7 dpf) = assay: C6-NPs endocytosis in larval zebrafish with endocytic inhibitors; assay type: in vivo, zebrafish (Danio rerio); conditions: 7 dpf larvae, 30 min inhibitor, C6-NPs 100 ng/mL 30 min
molecule,measurement,setting,value
"C[n+]1ccc(-c2ccccc2)cc1 [MPP^+, 1-methyl-4-phenylpyridinium ion]",cell death induced in SH-SY5Y cells,"SH-SY5Y cells; 2 mM MPP+, 36 h",47.6%
Ginkgolide B [GB],viability of MPP+-treated SH-SY5Y cells,SH-SY5Y cells; 1 μM,60%
same,viability of MPP+-treated SH-SY5Y cells,SH-SY5Y cells; 5 μM,65%
same,viability of MPP+-treated SH-SY5Y cells,SH-SY5Y cells; 10 μM,71%
same,viability of MPP+-treated SH-SY5Y cells,SH-SY5Y cells; 20 μM,78%
methyl-β-cyclodextrin [MβCD],inhibitory effect on C6-NPs internalization in zebrafish larvae,zebrafish larvae (7 dpf),most profound inhibitory effect
"CN(C)CCCN1c2ccccc2Sc2ccc(Cl)cc21 [CPZ, chlorpromazine]",inhibitory effect on C6-NPs internalization in zebrafish larvae,zebrafish larvae (7 dpf),most profound inhibitory effect
